Reference: publication PMC8684776, “Discovery and characterization of potent And‐1 inhibitors for cancer treatment” (Clinical and Translational Medicine, 2021)

Key:
[1] = test system: 60 human tumour cell lines; assay: NCI-60 one-dose screen, whole panel statistics; assay type: cell-based; details: mean growth percentage against all 60 tumor cell lines, 10 μM
Description: The NCI‐60 cell line panel includes 60 human tumour cell lines. The effect of CH3 on tumour cell growth was tested at National Cancer Institute, Developmental Therapeutics Program (NCI‐DTP) by following the protocol as described previously.[47]
We next evaluate the inhibitory efficacy of CH3 against a panel of 60 human cancer cell lines at the NCI‐DTP. […] To further compare the efficacy of CH3 in the inhibition of NCI 60 cells, we examined the inhibitory effects of CH3 on 60 cells by using five doses of CH3.
FIGURE 5 The effect of CH3 treatment in the NCI‐60 human tumor cell line panel. (A) Mean graph display of NCI‐60 cell line screening data for CH3. The presented result is a one‐dose mean graph display of NCI‐60 cell line screening data for CH3 at 10 μM. The number reported for the one‐dose assay is growth relative to the no‐drug control. Bars deflecting to the right of the mean indicate relatively high sensitivity, and bars deflecting to the left of the mean indicate relatively low sensitivity to CH3. Experiments were performed at the NCI‐DTP. (B) Dose–response curves of CH3 for breast and ovarian cell lines from NCI‐60 cell line panel. All cells were tested at the NCI‐DTP in the presence of CH3 at five concentrations (0.01 μM, 0.1 μM, 1 μM, 10 μM and 100 μM). […]

IGROV1 cells = assay: HR reporter assay; assay type: cell-based, human; details: CH3 2 µM or 4 µM
Description: Supplementary Figure S1. Identification of novel And-1 inhibitors. […]
(E) HR reporter assay to detect HR repair efficiency in cells treated with CH3.
IGROV1 cells treated with DMSO, 2 µM or 4 µM of CH3 were subjected to HR reporter assay and the
percentage of GFP-positive cells was determined by flow cytometry 48 h after I-SceI plasmid transfection.
HR efficiency were normalized to those obtained from cells treated with DMSO. Data represent means ±
SEM from three independent experiments. (F) HR reporter assay to detect HR repair efficiency in cells
treated with BZA using approaches as in E.

## OB1OCc2cc(/C=C/c3ccc(Cl)c(Cl)c3)ccc21 [CH3, (E)‐5‐(3,4‐dichlorostyryl)benzo[c][1,2]oxaborol‐1(3H)‐ol]
[1]
  Growth Percent (Mean): 1.84%
IGROV1 cells
  HR efficiency: profoundly reduced HR efficiency
